Reference: PubChem BioAssay AID1259407 (Chemical Carcinogenesis Research Information System (CCRIS), 2018)
Activity calls are given as the source filed them. No rule for the calls is given here.

System: CCRIS mutagenicity, Ames/micronucleus/aberration tests
Test: CCRIS mutagenicity studies
[1] = Test System: AMES SALMONELLA TYPHIMURIUM, Strain/Indicator: TA98, Metabolic Activation: NONE, Method: PREINCUBATION
[2] = Test System: AMES SALMONELLA TYPHIMURIUM, Strain/Indicator: TA100, Metabolic Activation: NONE, Method: PREINCUBATION
[3] = Test System: AMES SALMONELLA TYPHIMURIUM, Strain/Indicator: TA1535, Metabolic Activation: NONE, Method: PREINCUBATION
[4] = Test System: AMES SALMONELLA TYPHIMURIUM, Strain/Indicator: TA98, Metabolic Activation: NONE, Method: STANDARD PLATE
[5] = Test System: AMES SALMONELLA TYPHIMURIUM, Strain/Indicator: TA100, Metabolic Activation: NONE, Method: STANDARD PLATE
[6] = Test System: AMES SALMONELLA TYPHIMURIUM, Strain/Indicator: TA1535, Metabolic Activation: NONE, Method: STANDARD PLATE
[7] = Test System: AMES SALMONELLA TYPHIMURIUM, Strain/Indicator: TA1537, Metabolic Activation: NONE, Method: STANDARD PLATE

Which results are given for `CCCCCCCCCCCC(=O)N(CCO)CCO`?
mutagenic call (End Point: IN VITRO CHROMOSOMAL ABERRATIONS, Test System: CHO-LB CELLS, Metabolic Activation: NONE): inactive; negative; mutagenic call (End Point: IN VITRO CHROMOSOMAL ABERRATIONS, Test System: CHO-LB CELLS, Metabolic Activation: RAT, LIVER, S-9, AROCLOR 1254): inactive; negative; mutagenic call (Test System: AMES SALMONELLA TYPHIMURIUM, Strain/Indicator: TA97, Metabolic Activation: HAMSTER, LIVER, S-9, AROCLOR 1254 (10%), Method: PREINCUBATION): inactive; negative; mutagenic call (Test System: AMES SALMONELLA TYPHIMURIUM, Strain/Indicator: TA97, Metabolic Activation: HAMSTER, LIVER, S-9, AROCLOR 1254 (30%), Method: PREINCUBATION): inactive; negative; mutagenic call (Test System: AMES SALMONELLA TYPHIMURIUM, Strain/Indicator: TA97, Metabolic Activation: NONE, Method: PREINCUBATION): inactive; negative; mutagenic call (Test System: AMES SALMONELLA TYPHIMURIUM, Strain/Indicator: TA97, Metabolic Activation: RAT, LIVER, S-9, AROCLOR 1254 (10%), Method: PREINCUBATION): inactive; negative; mutagenic call (Test System: AMES SALMONELLA TYPHIMURIUM, Strain/Indicator: TA97, Metabolic Activation: RAT, LIVER, S-9, AROCLOR 1254 (30%), Method: PREINCUBATION): inactive; negative; mutagenic call (Test System: AMES SALMONELLA TYPHIMURIUM, Strain/Indicator: TA98, Metabolic Activation: HAMSTER, LIVER, S-9, AROCLOR 1254 (10%), Method: PREINCUBATION): inactive; negative; mutagenic call (Test System: AMES SALMONELLA TYPHIMURIUM, Strain/Indicator: TA98, Metabolic Activation: HAMSTER, LIVER, S-9, AROCLOR 1254 (30%), Method: PREINCUBATION): inactive; negative; mutagenic call [1]: inactive; negative; mutagenic call (Test System: AMES SALMONELLA TYPHIMURIUM, Strain/Indicator: TA98, Metabolic Activation: RAT, LIVER, S-9, AROCLOR 1254 (10%), Method: PREINCUBATION): inactive; negative; mutagenic call (Test System: AMES SALMONELLA TYPHIMURIUM, Strain/Indicator: TA98, Metabolic Activation: RAT, LIVER, S-9, AROCLOR 1254 (30%), Method: PREINCUBATION): inactive; negative; mutagenic call (Test System: AMES SALMONELLA TYPHIMURIUM, Strain/Indicator: TA100, Metabolic Activation: HAMSTER, LIVER, S-9, AROCLOR 1254 (10%), Method: PREINCUBATION): inactive; negative; mutagenic call (Test System: AMES SALMONELLA TYPHIMURIUM, Strain/Indicator: TA100, Metabolic Activation: HAMSTER, LIVER, S-9, AROCLOR 1254 (30%), Method: PREINCUBATION): inactive; negative; mutagenic call [2]: inactive; negative; mutagenic call (Test System: AMES SALMONELLA TYPHIMURIUM, Strain/Indicator: TA100, Metabolic Activation: RAT, LIVER, S-9, AROCLOR 1254 (10%), Method: PREINCUBATION): inactive; negative; mutagenic call (Test System: AMES SALMONELLA TYPHIMURIUM, Strain/Indicator: TA100, Metabolic Activation: RAT, LIVER, S-9, AROCLOR 1254 (30%), Method: PREINCUBATION): inactive; negative; mutagenic call (Test System: AMES SALMONELLA TYPHIMURIUM, Strain/Indicator: TA1535, Metabolic Activation: HAMSTER, LIVER, S-9, AROCLOR 1254 (10%), Method: PREINCUBATION): inactive; negative; mutagenic call (Test System: AMES SALMONELLA TYPHIMURIUM, Strain/Indicator: TA1535, Metabolic Activation: HAMSTER, LIVER, S-9, AROCLOR 1254 (30%), Method: PREINCUBATION): inactive; negative; mutagenic call [3]: inactive; negative; mutagenic call (Test System: AMES SALMONELLA TYPHIMURIUM, Strain/Indicator: TA1535, Metabolic Activation: RAT, LIVER, S-9, AROCLOR 1254 (10%), Method: PREINCUBATION): inactive; negative; mutagenic call (Test System: AMES SALMONELLA TYPHIMURIUM, Strain/Indicator: TA1535, Metabolic Activation: RAT, LIVER, S-9, AROCLOR 1254 (30%), Method: PREINCUBATION): inactive; negative

What does the source list for `COc1ccc([C@H]2O[C@H]2C)cc1`?
mutagenic call [1]: inactive; negative; mutagenic call [2]: active; positive; mutagenic call [3]: active; positive

Which mutagenic call [4] does the source give for `CC1(C)CCC[C@]2(C)[C@H]3CC=C(C=O)[C@@H](C=O)[C@]3(C)CC[C@@H]12` here?
The mutagenic call was “inactive; negative”.

What about the mutagenic call [5] of the same compound?
The mutagenic call was “inactive; negative”.

What about the mutagenic call (Test System: AMES SALMONELLA TYPHIMURIUM, Strain/Indicator: TA2637, Metabolic Activation: NONE, Method: STANDARD PLATE) of the same compound?
Its mutagenic call is “inactive; negative”.

With `CC(C)Oc1ccc2c(=O)c(-c3ccccc3)coc2c1` as the compound, how does the mutagenic call [4] read?
The mutagenic call was “inactive; negative”.

What about the mutagenic call (Test System: AMES SALMONELLA TYPHIMURIUM, Strain/Indicator: TA98, Metabolic Activation: S-9, Method: STANDARD PLATE) of the same compound?
Its mutagenic call is “inactive; negative”.

And the mutagenic call [5]?
Its mutagenic call is “inactive; negative”.

And the mutagenic call (Test System: AMES SALMONELLA TYPHIMURIUM, Strain/Indicator: TA100, Metabolic Activation: S-9, Method: STANDARD PLATE)?
The mutagenic call was “inactive; negative”.

What about the mutagenic call [6] of the same compound?
Its mutagenic call is “inactive; negative”.

And the mutagenic call (Test System: AMES SALMONELLA TYPHIMURIUM, Strain/Indicator: TA1535, Metabolic Activation: S-9, Method: STANDARD PLATE)?
The mutagenic call was “inactive; negative”.

And the mutagenic call [7]?
Its mutagenic call is “inactive; negative”.

What about the mutagenic call (Test System: AMES SALMONELLA TYPHIMURIUM, Strain/Indicator: TA1537, Metabolic Activation: S-9, Method: STANDARD PLATE) of the same compound?
Its mutagenic call is “inactive; negative”.

And the mutagenic call (Test System: AMES SALMONELLA TYPHIMURIUM, Strain/Indicator: TA1538, Metabolic Activation: NONE, Method: STANDARD PLATE)?
Its mutagenic call is “inactive; negative”.

What about the mutagenic call (Test System: AMES SALMONELLA TYPHIMURIUM, Strain/Indicator: TA1538, Metabolic Activation: S-9, Method: STANDARD PLATE) of the same compound?
Its mutagenic call is “inactive; negative”.

What about the mutagenic call (Test System: E. COLI, Strain/Indicator: WP2 UVRA, Metabolic Activation: NONE, Method: STANDARD PLATE) of the same compound?
Its mutagenic call is “inactive; negative”.

And the mutagenic call (Test System: E. COLI, Strain/Indicator: WP2 UVRA, Metabolic Activation: S-9, Method: STANDARD PLATE)?
The mutagenic call was “inactive; negative”.

Which mutagenic call (End Point: In vitro chromosomal aberrations, Test System: Chinese hamster V79 lung cells, Metabolic Activation: None) does the source give for `O.O.O.O.O.O.[Cl-].[Cl-].[Ni+2]` here?
The mutagenic call was “inactive; negative”.

What about the mutagenic call [1] of the same compound?
Its mutagenic call is “inactive; negative”.

And the mutagenic call (Test System: AMES SALMONELLA TYPHIMURIUM, Strain/Indicator: TA98, Metabolic Activation: RAT LIVER S-9, PHENOBARBITAL AND BETA-NAPHTHOFLAVONE, Method: PREINCUBATION)?
The mutagenic call was “inactive; negative”.

What about the mutagenic call [2] of the same compound?
The mutagenic call was “inactive; negative”.

And the mutagenic call (Test System: AMES SALMONELLA TYPHIMURIUM, Strain/Indicator: TA100, Metabolic Activation: RAT LIVER S-9, PHENOBARBITAL AND BETA-NAPHTHOFLAVONE, Method: PREINCUBATION)?
Its mutagenic call is “inactive; negative”.

And the mutagenic call [3]?
The mutagenic call was “inactive; negative”.

And the mutagenic call (Test System: AMES SALMONELLA TYPHIMURIUM, Strain/Indicator: TA1535, Metabolic Activation: RAT LIVER S-9, PHENOBARBITAL AND BETA-NAPHTHOFLAVONE, Method: PREINCUBATION)?
Its mutagenic call is “inactive; negative”.

And the mutagenic call (Test System: AMES SALMONELLA TYPHIMURIUM, Strain/Indicator: TA1537, Metabolic Activation: NONE, Method: PREINCUBATION)?
The mutagenic call was “inactive; negative”.

And the mutagenic call (Test System: AMES SALMONELLA TYPHIMURIUM, Strain/Indicator: TA1537, Metabolic Activation: RAT LIVER S-9, PHENOBARBITAL AND BETA-NAPHTHOFLAVONE, Method: PREINCUBATION)?
Its mutagenic call is “inactive; negative”.

What about the mutagenic call (Test System: AMES SALMONELLA TYPHIMURIUM, Strain/Indicator: TA1538, Metabolic Activation: NONE, Method: PREINCUBATION) of the same compound?
The mutagenic call was “inactive; negative”.

And the mutagenic call (Test System: AMES SALMONELLA TYPHIMURIUM, Strain/Indicator: TA1538, Metabolic Activation: RAT LIVER S-9, PHENOBARBITAL AND BETA-NAPHTHOFLAVONE, Method: PREINCUBATION)?
Its mutagenic call is “inactive; negative”.

And the mutagenic call (Test System: CHINESE HAMSTER V-79, Strain/Indicator: V-79/(HGPRT), Metabolic Activation: NONE)?
The mutagenic call was “active; positive”.

And the mutagenic call (Test System: E.COLI, Strain/Indicator: WP2UVRA, Metabolic Activation: NONE, Method: PREINCUBATION)?
Its mutagenic call is “inactive; negative”.

What about the mutagenic call (Test System: E.COLI, Strain/Indicator: WP2UVRA, Metabolic Activation: RAT LIVER S-9, PHENOBARBITAL AND BETA-NAPHTHOFLAVONE, Method: PREINCUBATION) of the same compound?
Its mutagenic call is “inactive; negative”.

For `O=Nn1cc(CCO)c2ccccc21`, which mutagenic call (Test System: AMES SALMONELLA TYPHIMURIUM, Strain/Indicator: TA97A, Metabolic Activation: NONE, Method: STANDARD PLATE) is on record?
Its mutagenic call is “active; positive”.

What about the mutagenic call [4] of the same compound?
Its mutagenic call is “active; positive”.

And the mutagenic call [5]?
The mutagenic call was “active; positive”.

What about the mutagenic call [6] of the same compound?
Its mutagenic call is “active; positive”.

What about the mutagenic call [7] of the same compound?
The mutagenic call was “active; positive”.
